# According to ChEMBL document CHEMBL5325415, “Falcipains: Biochemistry, target validation and structure-activity relationship studies of inhibitors as antimalarials” (Eur J Med Chem, 2023):
# pEC50, pIC50, pKd, pKi: −log10 of the molar value. *1 amine or outer side, *2 acyl side, *3 side chain or, on linkers, in order; H or OH if unused. Where a SMILES comes first, the peptide text is derived from it. [ ]: non-standard residue; d: D form. The star is where a group is joined. hPhe = N[C@@H](CCc1ccccc1)C(=O)O; Ac6c = NC1(C(=O)O)CCCCC1; Morpholide = C1CN(*)CCO1; Cbz = O=C(OCc1ccccc1)*; CO = O=C([*:1])[*:2]; CH2F = FC*
# Assays:
# Falcipain 2 [1] = target: T1, Falcipain 2 (Plasmodium falciparum, UniProt Q9N6S8); assay: Inhibition of Plasmodium falciparum FP-2 using Z-phe-Arg-AMC as substrate pretreated with enzyme for 30 mins followed by substrate addition and measured for 30 mins by fluorescence based analysis
# T1 sequence (Q9N6S8 whole entry): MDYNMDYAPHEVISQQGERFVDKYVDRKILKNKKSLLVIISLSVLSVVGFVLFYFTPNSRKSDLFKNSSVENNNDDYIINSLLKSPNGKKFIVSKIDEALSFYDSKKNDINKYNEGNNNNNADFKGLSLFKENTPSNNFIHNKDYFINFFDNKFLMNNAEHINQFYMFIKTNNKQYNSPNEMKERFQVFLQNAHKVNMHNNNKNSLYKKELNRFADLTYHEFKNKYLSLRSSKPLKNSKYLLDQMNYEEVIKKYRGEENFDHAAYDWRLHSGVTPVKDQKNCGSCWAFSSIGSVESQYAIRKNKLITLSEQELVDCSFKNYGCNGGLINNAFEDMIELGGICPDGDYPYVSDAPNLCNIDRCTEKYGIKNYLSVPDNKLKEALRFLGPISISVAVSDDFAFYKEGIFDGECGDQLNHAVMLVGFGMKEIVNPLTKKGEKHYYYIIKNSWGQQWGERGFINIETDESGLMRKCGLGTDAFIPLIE
# Plasmodium falciparum [2] = assay: Antimalarial activity against Plasmodium falciparum FCB1 infected in erythrocytes assessed as inhibition of [3H]hypoxanthine incorporation incubated for 24 to 48 hrs by beta counting analysis; assay type: functional, organism-based; conditions: FCB1, Erythrocyte
# Falcipain 2 [3] = target: T1, Falcipain 2; assay: Binding affinity to Plasmodium falciparum FP-2 by surface plasmon resonance analysis
# Plasmodium falciparum [4] = assay: Antiplasmodial activity against chloroquine-resistant Plasmodium falciparum W2 infected in human RBC assessed as inhibition of parasite growth measured after 72 hrs by Malstat assay; assay type: functional, organism-based; conditions: W2, Erythrocyte
# Plasmodium falciparum [5] = assay: Antiplasmodial activity against chloroquine-sensitive Plasmodium falciparum D6 infected in human RBC assessed as inhibition of parasite growth measured after 72 hrs by Malstat assay; assay type: functional, organism-based; conditions: D6, Erythrocyte
# Falcipain 2 [6] = target: T1, Falcipain 2; assay: Inhibition of Plasmodium falciparum FP-2 using Z-Leu-Arg-AMC as substrate pretreated with enzyme for 30 mins followed by substrate addition and measured for 30 mins by spectrofluorometry
# Plasmodium falciparum [7] = assay: Antiplasmodial activity against Plasmodium falciparum FCR3; assay type: functional, organism-based
# Plasmodium falciparum [8] = assay: Antiplasmodial activity against Plasmodium falciparum ItG2; assay type: functional; conditions: read-out: LD50 (the source's name)
# Falcipain 2 [9] = target: T1, Falcipain 2; assay: Inhibition of Plasmodium falciparum trophozite extracts FP-2
# Plasmodium falciparum [10] = assay: Antiplasmodial activity against Plasmodium falciparum D6; assay type: functional, organism-based
# Plasmodium falciparum [11] = assay: Antiplasmodial activity against Plasmodium falciparum HB3; assay type: functional, organism-based
# Plasmodium falciparum [12] = assay: Antiplasmodial activity against Plasmodium falciparum W2; assay type: functional, organism-based
# Plasmodium vinckei = assay: Antimalarial activity against Plasmodium vinckei infected in Swiss webster mouse assessed as disease cure rate at 50 to 100 mg/kg, po administered twice a day for 4 days; assay type: functional; conditions: dose 50-100 mg/kg, time 4 day
# Falcipain 2 [13] = target: T1, Falcipain 2; assay: Inhibition of Plasmodium falciparum Itg2 trophozite extracts FP-2 using Z-phe-Arg-AMC as substrate pretreated with enzyme for 30 mins followed by substrate addition and measured for 30 mins by spectrofluorometry
# [14] = Inhibition of Plasmodium vinckei extracts VP-2 using Z-phe-Arg-AMC as substrate pretreated with enzyme for 30 mins followed by substrate addition and measured for 30 mins by spectrofluorometry
# Plasmodium falciparum [15] = assay: Antiplasmodial activity against Plasmodium falciparum ItG; assay type: functional, organism-based
# Plasmodium falciparum [16] = assay: Antiplasmodial activity against Plasmodium falciparum Dd2; assay type: functional, organism-based
# Plasmodium falciparum [17] = assay: Antimalarial activity against Chloroquine-sensitive Plasmodium falciparum 3D7 infected in human erythrocytes assessed as inhibition of parasite growth incubated for 72 hrs by Giemsa staining based analysis; assay type: functional, organism-based; conditions: 3D7, Erythrocyte
# Plasmodium falciparum [18] = assay: Antimalarial activity against Chloroquine-resistant Plasmodium falciparum RKL9 infected in human erythrocytes assessed as inhibition of parasite growth incubated for 72 hrs by Giemsa staining based analysis; assay type: functional, organism-based; conditions: RKL9, Erythrocyte
# Falcipain 2 [19] = target: T1, Falcipain 2; assay: Inhibition of Plasmodium falciparum FP-2 using Z-Phe-Arg-AMC as substrate pretreated with enzyme for 10 mins followed by susbtrate addition and measured after 10 mins by fluorescence based analysis
# Heme = assay: Inhibition of heme (unknown origin) assessed as inhibition of hemozoin formation incubated for 24 hrs by FBIT test
# Falcipain 2 [20] = target: T1, Falcipain 2; assay: Inhibition of Plasmodium falciparum FP-2 using Z-Leu-Arg-AMC as substrate pretreated with enzyme for 30 mins followed by substrate addition and measured for 15 mins by spectrofluorometry
# Plasmodium falciparum [21] = assay: Antiplasmodial activity against Plasmodium falciparum W2 infected in human erythrocytes assessed as inhibition of parasite growth measured after 48 hrs by flow cytometry; assay type: functional, organism-based; conditions: W2, Erythrocyte
# Falcipain-3 = target: T2, Falcipain-3 (Plasmodium falciparum 3D7, UniProt Q8IIL0); assay: Inhibition of Plasmodium falciparum D10 trophozite lysates FP-3 pretreated with compound for 1 hr followed by labeling with Cy5-DCG04 for 1 hr by fluorescence scanning analysis; assay type: subcellular
# T2 sequence (Q8IIL0 whole entry): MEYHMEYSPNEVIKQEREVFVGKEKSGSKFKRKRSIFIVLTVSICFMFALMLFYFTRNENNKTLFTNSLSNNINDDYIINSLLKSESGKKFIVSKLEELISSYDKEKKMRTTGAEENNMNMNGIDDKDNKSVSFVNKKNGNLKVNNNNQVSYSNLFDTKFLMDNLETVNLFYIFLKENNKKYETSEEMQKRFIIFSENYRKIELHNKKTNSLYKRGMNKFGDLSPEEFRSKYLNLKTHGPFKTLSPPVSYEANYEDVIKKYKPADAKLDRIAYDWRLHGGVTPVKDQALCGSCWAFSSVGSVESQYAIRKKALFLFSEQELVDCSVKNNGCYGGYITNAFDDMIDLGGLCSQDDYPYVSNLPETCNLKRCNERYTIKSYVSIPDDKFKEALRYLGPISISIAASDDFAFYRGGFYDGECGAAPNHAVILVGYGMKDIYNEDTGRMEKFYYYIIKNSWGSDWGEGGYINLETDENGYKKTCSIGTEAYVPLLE
# [22] = system: Cathepsin L (relative to Plasmodium falciparum FP-2); assay: Selectivity index, ratio of Ki for inhibition of human Cathepsin L to Ki for inhibition of Plasmodium falciparum FP-2; assay type: toxicity; conditions: read-out: Ratio Ki
# [23] = system: Cathepsin B (relative to Plasmodium falciparum FP-2); assay: Selectivity index, ratio of Ki for inhibition of human Cathepsin B to Ki for inhibition of Plasmodium falciparum FP-2; assay type: toxicity; conditions: read-out: Ratio Ki
# Falcipain 2 [24] = target: T1, Falcipain 2; assay: Inhibition of Plasmodium falciparum FP-2 using Cbz-Leu-Arg-AMC as substrate and measured for 5 to 10 mins by fluorescence spectrophotometric analysis
compound,measurement,setting,value
COc1cc2cc(/C=C/C(=O)c3ccc(Cl)cc3Cl)c(Cl)nc2cc1OC,pIC50,Falcipain 2 [1],< 4.00
same,pIC50,Plasmodium falciparum [2],4.72
O=C(/C=C\c1ccc(O)c(O)c1)O[C@H]1CO[C@@H](Oc2c(-c3ccc(O)cc3)oc3cc(O)cc(O)c3c2=O)[C@H](OC(=O)/C=C/c2ccc(O)cc2)[C@H]1O,pKd,Falcipain 2 [3],4.47
same,pIC50,Plasmodium falciparum [4],5.55
same,pIC50,Plasmodium falciparum [5],5.54
same,pIC50,Falcipain 2 [6],6.36
N=C(N)NCCC[C@H](NC(=O)[C@H](Cc1ccccc1)NC(=O)OCc1ccccc1)C(=O)CF (Cbz-Phe-Arg-CH2F),pIC50,Plasmodium falciparum [7],7.19
same,LC50,Plasmodium falciparum [8],64 nM
same,pIC50,Falcipain 2 [9],9.44
same,pIC50,Plasmodium falciparum [10],7.19
same,pIC50,Plasmodium falciparum [11],7.00
same,pIC50,Plasmodium falciparum [12],7.19
CC(C)C[C@H](NC(=O)N1CCN(C)CC1)C(=O)N[C@H](/C=C/S(=O)(=O)c1ccc2ccccc2c1)CCc1ccccc1,Activity,Plasmodium vinckei,40%
same,pIC50,Falcipain 2 [13],8.70
same,pIC50,[14],7.70
same,pIC50,Plasmodium falciparum [10],9.66
same,pIC50,Plasmodium falciparum [11],9.72
same,pIC50,Plasmodium falciparum [15],9.74
same,pIC50,Plasmodium falciparum [12],9.70
same,pIC50,Plasmodium falciparum [16],9.49
O=C(CF)[C@H](CCc1ccccc1)NC(=O)[C@H](Cc1ccccc1)NC(=O)N1CCOCC1 ({Morpholide-CO}-Phe-[hPhe]-CH2F),pIC50,Falcipain 2 [9],8.52
same,pIC50,Plasmodium falciparum [10],9.05
same,pIC50,Plasmodium falciparum [11],9.18
same,pIC50,Plasmodium falciparum [15],9.29
same,pIC50,Plasmodium falciparum [12],9.09
same,pIC50,Plasmodium falciparum [16],9.11
COc1cccc(/C=C(\C#N)c2nc3ccccc3[nH]2)c1,pIC50,Plasmodium falciparum [17],6.16
same,pIC50,Plasmodium falciparum [18],5.47
same,pIC50,Falcipain 2 [19],5.66
same,pIC50,Heme,6.59
COc1cc(/C=C(\C#N)c2nc3ccccc3[nH]2)cc(OC)c1,pIC50,Plasmodium falciparum [17],5.80
same,pIC50,Plasmodium falciparum [18],4.84
same,pIC50,Falcipain 2 [19],5.44
COc1cc(OC)c(/C=C2\SC(=O)N(CC(=O)N3CCN(c4ccccc4)CC3)C2=O)c(OC)c1,pIC50,Falcipain 2 [20],4.59
same,pEC50,Plasmodium falciparum [21],6.35
CC[C@H](C)[C@@H](C(=O)O[C@@H](CC(C)C)C(=O)N[C@@H](CC(C)C)C(=O)N[C@@H](C)/C=C/C(=O)N1C(=O)C=C(OC)[C@@H]1C)N(C)C [GALLINAMIDE A],pIC50,Falcipain-3,7.66
N#CCNC(=O)C1(NC(=O)OCc2ccccc2)CCCCC1,selectivity ratio,[22],22.1
same,selectivity ratio,[23],> 100
same,pKi,Falcipain 2 [24],5.92
O=CCNC(=O)C1(NC(=O)OCc2ccccc2)CCCCC1 (Cbz-[Ac6c]-Gly-aldehyde),selectivity ratio,[22],12.6
same,selectivity ratio,[23],20.8
same,pKi,Falcipain 2 [24],7.19
